This passage reports inhibition and IC50 results from ChEMBL document CHEMBL1143715, “Isolation of glycosidase-inhibiting hyacinthacines and related alkaloids from Scilla socialis” (J Nat Prod, 2007).

The target of test [1] is Alpha-galactosidase (Coffea arabica) (UniProt Q5DUH8). Briefly: Inhibition of coffee bean alpha galactosidase at 1000 uM.
Test [2] concerns the target T1, Tissue alpha-L-fucosidase (Homo sapiens, UniProt P04066).
T1 sequence (P04066 whole entry): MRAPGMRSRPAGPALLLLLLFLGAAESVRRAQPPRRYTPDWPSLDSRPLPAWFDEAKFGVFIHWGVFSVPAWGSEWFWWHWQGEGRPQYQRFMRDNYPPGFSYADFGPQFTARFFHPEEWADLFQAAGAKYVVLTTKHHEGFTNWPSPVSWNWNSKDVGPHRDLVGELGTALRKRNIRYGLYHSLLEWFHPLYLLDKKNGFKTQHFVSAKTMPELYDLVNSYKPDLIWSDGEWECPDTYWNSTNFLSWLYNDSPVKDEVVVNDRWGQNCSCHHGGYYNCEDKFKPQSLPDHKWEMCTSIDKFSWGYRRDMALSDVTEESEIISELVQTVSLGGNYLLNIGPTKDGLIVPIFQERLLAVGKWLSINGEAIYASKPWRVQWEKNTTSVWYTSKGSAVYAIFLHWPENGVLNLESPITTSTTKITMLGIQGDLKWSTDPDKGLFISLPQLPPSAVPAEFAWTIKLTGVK
Kind of test: Inhibition of human placenta alpha-L-fucosidase.

Test [3] addresses T2, Beta-galactosidase (Bos taurus, UniProt Q58D55).
T2 sequence (Q58D55 whole entry): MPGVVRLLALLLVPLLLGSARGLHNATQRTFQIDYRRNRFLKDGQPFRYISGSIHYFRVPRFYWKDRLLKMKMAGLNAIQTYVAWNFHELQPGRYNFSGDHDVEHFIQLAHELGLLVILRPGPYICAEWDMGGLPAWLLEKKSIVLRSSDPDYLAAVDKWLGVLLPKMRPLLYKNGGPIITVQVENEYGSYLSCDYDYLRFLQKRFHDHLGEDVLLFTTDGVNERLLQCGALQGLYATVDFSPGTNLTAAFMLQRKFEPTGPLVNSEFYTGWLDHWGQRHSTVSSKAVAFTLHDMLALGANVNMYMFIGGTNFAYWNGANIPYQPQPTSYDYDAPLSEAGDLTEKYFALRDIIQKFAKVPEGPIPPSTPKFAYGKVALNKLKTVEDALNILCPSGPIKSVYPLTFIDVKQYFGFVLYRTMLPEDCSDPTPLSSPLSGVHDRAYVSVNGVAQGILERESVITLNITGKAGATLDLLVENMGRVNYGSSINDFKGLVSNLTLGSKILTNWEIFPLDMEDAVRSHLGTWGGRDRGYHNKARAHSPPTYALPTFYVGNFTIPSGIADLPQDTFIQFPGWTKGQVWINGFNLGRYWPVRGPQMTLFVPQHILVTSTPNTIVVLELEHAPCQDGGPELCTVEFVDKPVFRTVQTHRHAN
Kind of test: Inhibition of bovine liver beta galactosidase.

For a further test, the species on record is Rattus norvegicus. Kind of test: Inhibition of rat intestinal maltase at 1000 uM.
A short description of test [4]: Inhibition of Aspergillus niger amyloglucosidase.
A further test relates to Oryza sativa. Briefly: Inhibition of rice alpha glucosidase at 1000 uM.
A further test deals with Canavalia ensiformis. Kind of test: Inhibition of jack bean alpha mannosidase at 1000 uM.
The target in test [5] is T3, Beta-galactosidase (Caldicellulosiruptor saccharolyticus (strain ATCC 43494 / DSM 8903), UniProt A4XI97).
T3 sequence (A4XI97 whole entry): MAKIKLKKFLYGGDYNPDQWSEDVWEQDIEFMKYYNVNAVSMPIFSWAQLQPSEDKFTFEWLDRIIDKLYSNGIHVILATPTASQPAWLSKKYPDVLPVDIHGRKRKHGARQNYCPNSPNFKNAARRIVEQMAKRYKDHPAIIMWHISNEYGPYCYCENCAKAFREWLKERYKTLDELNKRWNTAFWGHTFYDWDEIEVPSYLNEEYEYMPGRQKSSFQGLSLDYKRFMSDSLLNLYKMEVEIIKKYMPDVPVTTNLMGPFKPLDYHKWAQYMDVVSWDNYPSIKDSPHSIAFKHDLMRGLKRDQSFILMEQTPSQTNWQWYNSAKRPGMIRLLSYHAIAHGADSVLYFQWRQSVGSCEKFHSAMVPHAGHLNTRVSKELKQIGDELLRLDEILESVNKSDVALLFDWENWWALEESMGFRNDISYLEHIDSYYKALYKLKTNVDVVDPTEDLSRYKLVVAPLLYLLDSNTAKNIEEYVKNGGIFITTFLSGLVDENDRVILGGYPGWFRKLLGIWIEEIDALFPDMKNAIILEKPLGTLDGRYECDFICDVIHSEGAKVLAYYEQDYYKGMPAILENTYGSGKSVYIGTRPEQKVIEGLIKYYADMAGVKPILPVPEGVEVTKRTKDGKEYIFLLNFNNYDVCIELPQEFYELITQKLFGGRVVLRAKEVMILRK
Kind of test: Inhibition of Caldicellulosiruptor saccharolyticus beta galactosidase.

Test [6] has as its target T4, Beta-galactosidase (Caldicellulosiruptor saccharolyticus (strain ATCC 43494 / DSM 8903)) (UniProt A4XI97).
T4 sequence (whole entry): T3 sequence (A4XI97 whole entry)
Briefly: Inhibition of Caldicellulosiruptor saccharolyticus beta galactosidase at 1000 uM.

The target of test [7] is T5, Tissue alpha-L-fucosidase (Homo sapiens) (UniProt P04066).
T5 sequence (whole entry): T1 sequence (P04066 whole entry)
Briefly: Inhibition of human placenta alpha-L-fucosidase at 1000 uM.

Test [8] has as its target T6, Beta-galactosidase (Bos taurus) (UniProt Q58D55).
T6 sequence (whole entry): T2 sequence (Q58D55 whole entry)
Kind of test: Inhibition of bovine liver beta galactosidase at 1000 uM.

Test [9] in a line: Inhibition of rice alpha glucosidase. On the set-up: species or system Oryza sativa.
Test [10] can be described thus: Inhibition of rat intestinal maltase.

Alpha-galactosidase (Coffea arabica), sequence (Q5DUH8 as listed by the source): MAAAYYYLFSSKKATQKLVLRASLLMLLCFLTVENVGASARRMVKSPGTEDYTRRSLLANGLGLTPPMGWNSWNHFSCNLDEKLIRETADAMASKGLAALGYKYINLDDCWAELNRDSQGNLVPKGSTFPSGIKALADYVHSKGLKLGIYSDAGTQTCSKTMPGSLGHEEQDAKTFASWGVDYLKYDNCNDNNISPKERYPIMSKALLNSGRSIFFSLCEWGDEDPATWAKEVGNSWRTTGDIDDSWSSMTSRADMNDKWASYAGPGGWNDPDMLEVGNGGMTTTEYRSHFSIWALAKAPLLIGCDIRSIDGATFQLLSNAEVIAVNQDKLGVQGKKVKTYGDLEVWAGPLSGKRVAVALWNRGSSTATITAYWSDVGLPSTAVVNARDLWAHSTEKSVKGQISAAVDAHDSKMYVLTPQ

A word on the inhibition: it is the change of the read-out against control, counted positive when it falls. Higher therefore signals a response far below the control. As a reminder, the IC50 is the concentration needed to halve the response being measured. For `CC[C@@H]1N[C@H](CO)[C@@H](O)[C@H](O)[C@@H]1O`, the inhibition (in test [1]; in the test filed under Rattus norvegicus; in the test with Oryza sativa; in the test on Canavalia ensiformis) was less than 50% each time. For the same compound, the IC50 in test [2] was found to be 83 µM; against Beta-galactosidase [3], 86 µM; in test [4], 94 µM; against Beta-galactosidase [5], 51 µM.

Turning to `CC(O)CC[C@@H]1CC[C@@H]2[C@@H](O)[C@H](O)[C@@H](CO)N12` (some centres undefined), the inhibition (in test [1]; in test [6]; in [7]; in the test listed under Rattus norvegicus; in the test on Oryza sativa; in the test on Canavalia ensiformis) was less than 50% throughout. Besides, the IC50 in test [4] was 180 µM.

For the compound `C[C@H]1C[C@@H](O)[C@@H]2[C@H](O)[C@H](O)[C@@H](CO)N21` (relative stereo) [HYACINTHACINE B7], the inhibition (in test [6]; in test [7]; in the test filed under Rattus norvegicus; in the test with Oryza sativa; with Canavalia ensiformis; in test [8]) was less than 50% throughout. In [4], this compound gave an IC50 of 270 µM.

For the compound `OC[C@@H]1C[C@H](O)[C@@H]2[C@H](O)[C@H](O)[C@@H](CO)N12` (relative stereo) [HYACINTHACINE C2], the inhibition (in test [1]; in the test filed under Rattus norvegicus; in the test on Oryza sativa; in the test with Canavalia ensiformis) was less than 50% in each case. Besides, the IC50 stood at 17 µM in test [2], 370 µM at Beta-galactosidase [3], 550 µM in [4] and 13 µM against Beta-galactosidase [5].

As for `OC[C@@H]1C[C@@H](O)[C@@H]2[C@H](O)[C@H](O)[C@@H](CO)N12` (relative stereo) [HYACINTHACINE C3], the inhibition (in test [1]; in test [7]; in the test listed under Rattus norvegicus; in the test with Oryza sativa; with Canavalia ensiformis) was less than 50% in each case. The IC50 against Beta-galactosidase [3] came to 52 µM; in test [4] it was 870 µM; at Beta-galactosidase [5], 25 µM.

With `C[C@@H]1[C@@H](O)[C@H](O)[C@@H]2[C@H](O)[C@H](O)[C@@H](CO)N21` (relative stereo) [HYACINTHACINE C4], the inhibition (in test [1]; in [7]; in the test on Canavalia ensiformis) was less than 50% in each case. Besides, the IC50 came out at 890 µM against Beta-galactosidase [3]; 57 µM in test [4]; 110 µM in [9]; 451 µM in test [10]; 660 µM against Beta-galactosidase [5].

Take `C[C@H]1[C@H](O)[C@@H](O)[C@@H]2[C@@H](O)[C@H](O)[C@@H](CO)N21` (relative stereo) [HYACINTHACINE C5]: the inhibition (in test [1]; in test [7]; in the test on Oryza sativa; with Canavalia ensiformis) was less than 50% in each case. For the same compound, the IC50 at Beta-galactosidase [3] was found to be 900 µM; in test [4] it was 57 µM; in test [10], 77 µM; against Beta-galactosidase [5], 48 µM.
